{"source": "paper PMC8212709", "about": "(Clinical and Translational Science, 2021)", "test": "Phase I SRD/MRD safety and tolerability", "format": "in vivo, human (healthy subjects)", "key": {"[1]": {"conditions": "SRD single dose 17.5 mg (n = 6)"}}, "data": [{"smiles": "C=CC(=O)N1CC[C@H](Oc2nc(-c3n[nH]c(=O)[nH]3)cc3ccccc23)C1", "note": "[TAK‐020]", "values": [{"measurement": "TEAEs", "setting": "SRD single dose 0.1 mg (n = 6)", "value": "0 n (%)"}, {"measurement": "TEAEs Leading to DC", "setting": "SRD single dose 0.1 mg (n = 6)", "value": "0 n (%)"}, {"measurement": "TEAEs, Mild", "setting": "SRD single dose 0.1 mg (n = 6)", "value": "0 n (%)"}, {"measurement": "TEAEs, Moderate", "setting": "SRD single dose 0.1 mg (n = 6)", "value": "0 n (%)"}, {"measurement": "TEAEs, Not related", "setting": "SRD single dose 0.1 mg (n = 6)", "value": "0 n (%)"}, {"measurement": "TEAEs, Related", "setting": "SRD single dose 0.1 mg (n = 6)", "value": "0 n (%)"}, {"measurement": "TEAEs, Severe", "setting": "SRD single dose 0.1 mg (n = 6)", "value": "0 n (%)"}, {"measurement": "Deaths", "setting": "SRD single dose 0.5 mg (n = 6)", "value": "0 n (%)"}, {"measurement": "Serious TEAEs", "setting": "SRD single dose 0.5 mg (n = 6)", "value": "0 n (%)"}, {"measurement": "Serious TEAEs, Not related", "setting": "SRD single dose 0.5 mg (n = 6)", "value": "0 n (%)"}, {"measurement": "Serious TEAEs, Related", "setting": "SRD single dose 0.5 mg (n = 6)", "value": "0 n (%)"}, {"measurement": "TEAEs", "setting": "SRD single dose 0.5 mg (n = 6)", "value": "0 n (%)"}, {"measurement": "TEAEs Leading to DC", "setting": "SRD single dose 0.5 mg (n = 6)", "value": "0 n (%)"}, {"measurement": "TEAEs, Mild", "setting": "SRD single dose 0.5 mg (n = 6)", "value": "0 n (%)"}, {"measurement": "TEAEs, Moderate", "setting": "SRD single dose 0.5 mg (n = 6)", "value": "0 n (%)"}, {"measurement": "TEAEs, Not related", "setting": "SRD single dose 0.5 mg (n = 6)", "value": "0 n (%)"}, {"measurement": "TEAEs, Related", "setting": "SRD single dose 0.5 mg (n = 6)", "value": "0 n (%)"}, {"measurement": "TEAEs, Severe", "setting": "SRD single dose 0.5 mg (n = 6)", "value": "0 n (%)"}, {"measurement": "Deaths", "setting": "SRD single dose 2.5 mg (n = 6)", "value": "0 n (%)"}, {"measurement": "Serious TEAEs", "setting": "SRD single dose 2.5 mg (n = 6)", "value": "0 n (%)"}, {"measurement": "Serious TEAEs, Not related", "setting": "SRD single dose 2.5 mg (n = 6)", "value": "0 n (%)"}, {"measurement": "Serious TEAEs, Related", "setting": "SRD single dose 2.5 mg (n = 6)", "value": "0 n (%)"}, {"measurement": "TEAEs", "setting": "SRD single dose 2.5 mg (n = 6)", "value": "1 (16.7) n (%)"}, {"measurement": "TEAEs Leading to DC", "setting": "SRD single dose 2.5 mg (n = 6)", "value": "0 n (%)"}, {"measurement": "TEAEs, Mild", "setting": "SRD single dose 2.5 mg (n = 6)", "value": "1 (16.7) n (%)"}, {"measurement": "TEAEs, Moderate", "setting": "SRD single dose 2.5 mg (n = 6)", "value": "0 n (%)"}, {"measurement": "TEAEs, Not related", "setting": "SRD single dose 2.5 mg (n = 6)", "value": "0 n (%)"}, {"measurement": "TEAEs, Related", "setting": "SRD single dose 2.5 mg (n = 6)", "value": "1 (16.7) n (%)"}, {"measurement": "TEAEs, Severe", "setting": "SRD single dose 2.5 mg (n = 6)", "value": "0 n (%)"}, {"measurement": "Deaths", "setting": "SRD single dose 4.4 mg (n = 6)", "value": "0 n (%)"}, {"measurement": "Serious TEAEs", "setting": "SRD single dose 4.4 mg (n = 6)", "value": "0 n (%)"}, {"measurement": "Serious TEAEs, Not related", "setting": "SRD single dose 4.4 mg (n = 6)", "value": "0 n (%)"}, {"measurement": "Serious TEAEs, Related", "setting": "SRD single dose 4.4 mg (n = 6)", "value": "0 n (%)"}, {"measurement": "TEAEs", "setting": "SRD single dose 4.4 mg (n = 6)", "value": "0 n (%)"}, {"measurement": "TEAEs Leading to DC", "setting": "SRD single dose 4.4 mg (n = 6)", "value": "0 n (%)"}, {"measurement": "TEAEs, Mild", "setting": "SRD single dose 4.4 mg (n = 6)", "value": "0 n (%)"}, {"measurement": "TEAEs, Moderate", "setting": "SRD single dose 4.4 mg (n = 6)", "value": "0 n (%)"}, {"measurement": "TEAEs, Not related", "setting": "SRD single dose 4.4 mg (n = 6)", "value": "0 n (%)"}, {"measurement": "TEAEs, Related", "setting": "SRD single dose 4.4 mg (n = 6)", "value": "0 n (%)"}, {"measurement": "TEAEs, Severe", "setting": "SRD single dose 4.4 mg (n = 6)", "value": "0 n (%)"}, {"measurement": "Deaths", "setting": "SRD single dose 8.8 mg (n = 6)", "value": "0 n (%)"}, {"measurement": "Serious TEAEs", "setting": "SRD single dose 8.8 mg (n = 6)", "value": "0 n (%)"}, {"measurement": "Serious TEAEs, Not related", "setting": "SRD single dose 8.8 mg (n = 6)", "value": "0 n (%)"}, {"measurement": "Serious TEAEs, Related", "setting": "SRD single dose 8.8 mg (n = 6)", "value": "0 n (%)"}, {"measurement": "TEAEs", "setting": "SRD single dose 8.8 mg (n = 6)", "value": "1 (16.7) n (%)"}, {"measurement": "TEAEs Leading to DC", "setting": "SRD single dose 8.8 mg (n = 6)", "value": "0 n (%)"}, {"measurement": "TEAEs, Mild", "setting": "SRD single dose 8.8 mg (n = 6)", "value": "1 (16.7) n (%)"}, {"measurement": "TEAEs, Moderate", "setting": "SRD single dose 8.8 mg (n = 6)", "value": "0 n (%)"}, {"measurement": "TEAEs, Not related", "setting": "SRD single dose 8.8 mg (n = 6)", "value": "0 n (%)"}, {"measurement": "TEAEs, Related", "setting": "SRD single dose 8.8 mg (n = 6)", "value": "1 (16.7) n (%)"}, {"measurement": "TEAEs, Severe", "setting": "SRD single dose 8.8 mg (n = 6)", "value": "0 n (%)"}, {"measurement": "Deaths", "setting": "[1]", "value": "0 n (%)"}, {"measurement": "Serious TEAEs", "setting": "[1]", "value": "0 n (%)"}, {"measurement": "Serious TEAEs, Not related", "setting": "[1]", "value": "0 n (%)"}, {"measurement": "Serious TEAEs, Related", "setting": "[1]", "value": "0 n (%)"}, {"measurement": "TEAEs", "setting": "[1]", "value": "0 n (%)"}, {"measurement": "TEAEs Leading to DC", "setting": "[1]", "value": "0 n (%)"}, {"measurement": "TEAEs, Mild", "setting": "[1]", "value": "0 n (%)"}, {"measurement": "TEAEs, Moderate", "setting": "[1]", "value": "0 n (%)"}, {"measurement": "TEAEs, Not related", "setting": "[1]", "value": "0 n (%)"}, {"measurement": "TEAEs, Related", "setting": "[1]", "value": "0 n (%)"}, {"measurement": "TEAEs, Severe", "setting": "[1]", "value": "0 n (%)"}, {"measurement": "Deaths", "setting": "SRD single dose 35 mg (n = 6)", "value": "0 n (%)"}, {"measurement": "Serious TEAEs", "setting": "SRD single dose 35 mg (n = 6)", "value": "0 n (%)"}, {"measurement": "Serious TEAEs, Not related", "setting": "SRD single dose 35 mg (n = 6)", "value": "0 n (%)"}, {"measurement": "Serious TEAEs, Related", "setting": "SRD single dose 35 mg (n = 6)", "value": "0 n (%)"}, {"measurement": "TEAEs", "setting": "SRD single dose 35 mg (n = 6)", "value": "0 n (%)"}, {"measurement": "TEAEs Leading to DC", "setting": "SRD single dose 35 mg (n = 6)", "value": "0 n (%)"}, {"measurement": "TEAEs, Mild", "setting": "SRD single dose 35 mg (n = 6)", "value": "0 n (%)"}, {"measurement": "TEAEs, Moderate", "setting": "SRD single dose 35 mg (n = 6)", "value": "0 n (%)"}, {"measurement": "TEAEs, Not related", "setting": "SRD single dose 35 mg (n = 6)", "value": "0 n (%)"}, {"measurement": "TEAEs, Related", "setting": "SRD single dose 35 mg (n = 6)", "value": "0 n (%)"}, {"measurement": "TEAEs, Severe", "setting": "SRD single dose 35 mg (n = 6)", "value": "0 n (%)"}, {"measurement": "Deaths", "setting": "SRD single dose 70 mg (n = 6)", "value": "0 n (%)"}, {"measurement": "Serious TEAEs", "setting": "SRD single dose 70 mg (n = 6)", "value": "0 n (%)"}, {"measurement": "Serious TEAEs, Not related", "setting": "SRD single dose 70 mg (n = 6)", "value": "0 n (%)"}, {"measurement": "Serious TEAEs, Related", "setting": "SRD single dose 70 mg (n = 6)", "value": "0 n (%)"}, {"measurement": "TEAEs", "setting": "SRD single dose 70 mg (n = 6)", "value": "3 (50.0) n (%)"}, {"measurement": "TEAEs Leading to DC", "setting": "SRD single dose 70 mg (n = 6)", "value": "0 n (%)"}, {"measurement": "TEAEs, Mild", "setting": "SRD single dose 70 mg (n = 6)", "value": "3 (50.0) n (%)"}, {"measurement": "TEAEs, Moderate", "setting": "SRD single dose 70 mg (n = 6)", "value": "0 n (%)"}, {"measurement": "TEAEs, Not related", "setting": "SRD single dose 70 mg (n = 6)", "value": "2 (33.3) n (%)"}, {"measurement": "TEAEs, Related", "setting": "SRD single dose 70 mg (n = 6)", "value": "1 (16.7) n (%)"}, {"measurement": "TEAEs, Severe", "setting": "SRD single dose 70 mg (n = 6)", "value": "0 n (%)"}, {"measurement": "Deaths", "setting": "SRD single dose 105 mg (n = 6)", "value": "0 n (%)"}, {"measurement": "Serious TEAEs", "setting": "SRD single dose 105 mg (n = 6)", "value": "0 n (%)"}, {"measurement": "Serious TEAEs, Not related", "setting": "SRD single dose 105 mg (n = 6)", "value": "0 n (%)"}, {"measurement": "Serious TEAEs, Related", "setting": "SRD single dose 105 mg (n = 6)", "value": "0 n (%)"}, {"measurement": "TEAEs", "setting": "SRD single dose 105 mg (n = 6)", "value": "1 (16.7) n (%)"}, {"measurement": "TEAEs Leading to DC", "setting": "SRD single dose 105 mg (n = 6)", "value": "0 n (%)"}, {"measurement": "TEAEs, Mild", "setting": "SRD single dose 105 mg (n = 6)", "value": "1 (16.7) n (%)"}, {"measurement": "TEAEs, Moderate", "setting": "SRD single dose 105 mg (n = 6)", "value": "0 n (%)"}, {"measurement": "TEAEs, Not related", "setting": "SRD single dose 105 mg (n = 6)", "value": "1 (16.7) n (%)"}, {"measurement": "TEAEs, Related", "setting": "SRD single dose 105 mg (n = 6)", "value": "0 n (%)"}, {"measurement": "TEAEs, Severe", "setting": "SRD single dose 105 mg (n = 6)", "value": "0 n (%)"}, {"measurement": "percentage of subjects who experienced TEAEs", "setting": "SRD, overall TAK‐020 group", "value": 11.1, "unit": "%"}]}]}
